The source of these data is US8846746B2, “Pyrazole compound and pharmaceutical use thereof” (Japan Tobacco Inc., priority 2011, dated 2014).

The pIC50 is the negative decadic logarithm of the IC50, by convention in mol/L. Read a low pIC50 as a high IC50. In general, inhibition refers to the percentage by which the read-out fell short of the control.

Structures are written as SMILES. pIC50: −log10 of the molar value.

The target in one assay is human SGLT1 (Homo sapiens (Human), UniProt P13866). Kind of assay: SGLT1 inhibitory activity: 14C-AMG uptake into CHO-K1 cell line stably expressing human SGLT1. It counts as cell-based. As to conditions: 14C-AMG uptake, CHO-K1 cells stably expressing human SGLT1. The gist of the method: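 CHO-K1 cells stably expressing human SGLT1 were pre-incubated 20 min in Na(−) buffer (pH 7.4). Test compound in Na(+) buffer with BSA was added with ¹⁴C-AMG (8 kBq) plus unlabelled AMG (2 mM in the added solution) for 1 h at 37 °C.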
human SGLT1, sequence (P13866 whole entry): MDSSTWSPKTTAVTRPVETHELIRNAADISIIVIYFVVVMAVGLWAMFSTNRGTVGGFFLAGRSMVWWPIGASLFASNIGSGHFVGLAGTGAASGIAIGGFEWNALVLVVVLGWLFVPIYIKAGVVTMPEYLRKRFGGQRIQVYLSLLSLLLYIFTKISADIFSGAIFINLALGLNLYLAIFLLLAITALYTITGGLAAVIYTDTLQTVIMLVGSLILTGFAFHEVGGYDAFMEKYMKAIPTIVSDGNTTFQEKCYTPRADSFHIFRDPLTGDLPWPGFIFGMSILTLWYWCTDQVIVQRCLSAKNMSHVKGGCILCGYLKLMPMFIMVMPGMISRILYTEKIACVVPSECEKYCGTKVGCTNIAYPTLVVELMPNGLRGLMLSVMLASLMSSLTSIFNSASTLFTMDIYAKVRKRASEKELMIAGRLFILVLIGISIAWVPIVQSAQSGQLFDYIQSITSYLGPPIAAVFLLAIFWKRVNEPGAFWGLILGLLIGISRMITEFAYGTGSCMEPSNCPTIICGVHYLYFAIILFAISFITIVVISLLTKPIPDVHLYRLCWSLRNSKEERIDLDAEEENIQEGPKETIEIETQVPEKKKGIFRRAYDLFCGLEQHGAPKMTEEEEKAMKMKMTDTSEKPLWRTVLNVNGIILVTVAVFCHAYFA
`C[C@@H](OCc1cccc(-c2cc(NC(=O)[C@@H]3CNC(=O)C3)nn2-c2ccc(F)cc2)c1)C(F)(F)F` [Example 238, (S)-5-oxopyrrolidine-3-carboxylic acid{1-(4-fluorophenyl)-5-[3-((R)-2,2,2-trifluoro-1-methylethoxymethyl)phenyl]-1H-pyrazol-3-yl}amide] had a pIC50 of 8.10.

Molecule `C[C@@H](OCc1cc(F)cc(-c2cc(NC(=O)[C@@H]3CNC(=O)C3)nn2-c2ccc(F)cc2)c1)C(F)(F)F` [Example 239, (S)-5-oxopyrrolidine-3-carboxylic acid{1-(4-fluorophenyl)-5-[3-fluoro-5-((R)-2,2,2-trifluoro-1-methylethoxymethyl)phenyl]-1H-pyrazol-3-yl}amide] gave a pIC50 of 8.15.

In the case of `C[C@@H](OCc1cc(F)cc(-c2cc(NC(=O)[C@H]3CNC(=O)N3)nn2-c2ccc(F)cc2)c1)C(F)(F)F` [Example 240, (R)-2-oxoimidazolidine-4-carboxylic acid{1-(4-fluorophenyl)-5-[3-fluoro-5-((R)-2,2,2-trifluoro-1-methylethoxymethyl)phenyl]-1H-pyrazol-3-yl}amide], the pIC50 was 7.70. On to `C[C@@H](OCc1cc(Cl)cc(-c2cc(NC(=O)[C@@H]3CNC(=O)C3)nn2-c2ccccc2)c1)C(F)(F)F` [Example 241, (S)-5-oxopyrrolidine-3-carboxylic acid{5-[3-chloro-5-((R)-2,2,2-trifluoro-1-methylethoxymethyl)phenyl]-1-phenyl-1H-pyrazol-3-yl}amide], for which the negative logarithm of the IC50 (pIC50) was 8.00. As to `C[C@@H](OCc1cc(Cl)cc(-c2cc(NC(=O)[C@@H]3CNC(=O)C3)nn2-c2ccc(F)cc2)c1)C(F)(F)F` [Example 242, (S)-5-oxopyrrolidine-3-carboxylic acid{5-[3-chloro-5-((R)-2,2,2-trifluoro-1-methylethoxymethyl)phenyl]-1-(4-fluorophenyl)-1H-pyrazol-3-yl}amide], the negative-log IC50 (pIC50) was 8.05. In turn, `CC(C)(OCc1cc(Cl)cc(-c2cc(NC(=O)[C@@H]3CNC(=O)C3)nn2-c2ccccc2)c1)C(F)(F)F` [Example 243, (S)-5-oxopyrrolidine-3-carboxylic acid[5-[3-chloro-5-(2,2,2-trifluoro-1,1-dimethylethoxymethyl)phenyl]-1-phenyl-1H-pyrazol-3-yl]amide] showed a pIC50 of 7.85. Turning to `C[C@@H](OCc1cccc(-c2cc(NC(=O)[C@@H]3CNC(=O)C3)nn2-c2ccc(Cl)cc2)c1)C(F)(F)F` [Example 244, (S)-5-oxopyrrolidine-3-carboxylic acid{1-(4-chlorophenyl)-5-[3-((R)-2,2,2-trifluoro-1-methylethoxymethyl)phenyl]-1H-pyrazol-3-yl}amide], the pIC50 was 8.10. Regarding `CCCCc1cccc(-c2cc(NC(=O)[C@H]3CNC(=O)N3)nn2-c2ccccc2)c1` [Example 245, (R)-2-Oxoimidazolidine-4-carboxylic acid[5-(3-butylphenyl)-1-phenyl-1H-pyrazol-3-yl]amide], the negative logarithm of the IC50 (pIC50) is 7.72.

Turning to `O=C1C[C@H](C(=O)Nc2cc(-c3cccc(COC(C(F)(F)F)C(F)(F)F)c3)n(-c3ccccc3)n2)CN1` [Example 246, (S)-5-oxopyrrolidine-3-carboxylic acid{1-phenyl-5-[3-(2,2,2-trifluoro-1-trifluoromethylethoxymethyl)phenyl]-1H-pyrazol-3-yl}amide], the pIC50 is 7.94.

With `O=C1C[C@H](C(=O)Nc2cc(-c3cc(F)cc(COCC(F)(F)F)c3)n(-c3ccc(F)cc3)n2)CN1` [Example 248, (S)-5-oxopyrrolidine-3-carboxylic acid{1-(4-fluorophenyl)-5-[3-fluoro-5-(2,2,2-trifluoroethoxymethyl)phenyl]-1H-pyrazol-3-yl}amide], the pIC50 is 7.60.

`CCCc1cccc(-c2cc(NC(=O)C34CNC(=O)C3C4)nn2-c2ccccc2)c1` (stereo not drawn) [Example 249, 4-oxo-3-azabicyclo[3.1.0]hexane-1-carboxylic acid[1-phenyl-5-(3-propylphenyl)-1H-pyrazol-3-yl]amide] gave a pIC50 of 7.41. Regarding `CCCc1cccc(-c2cc(NC(=O)[C@@H]3CNC(=O)O3)nn2-c2ccccc2)c1` [Example 257], the negative logarithm of the IC50 (pIC50) was 7.12.

`CCCc1cccc(-c2cc(NC(=O)[C@H]3CNC(=O)O3)nn2-c2ccccc2)c1` [Example 258] had a negative logarithm of the IC50 (pIC50) of 7.64. Regarding `O=C1C[C@H](C(=O)Nc2cc(-c3cccc(OCC(F)(F)F)c3)n(-c3ccccc3)n2)CN1` [Example 260], the pIC50 was 7.64. Turning to `CCCc1cccc(-c2cc(NC(=O)[C@@H]3CNC(=O)C3)nn2-c2ccccc2C)c1` [Example 261], the pIC50 was 8.42. With `CCCc1cccc(-c2cc(NC(=O)[C@@H]3CNC(=O)C3)nn2-c2cccc(Cl)c2)c1` [Example 262], the pIC50 was 8.22. `O=C1NC[C@@H](C(=O)Nc2cc(-c3cccc(OC(F)(F)F)c3)n(-c3ccccc3)n2)O1` [Example 263] showed a pIC50 of 6.43. `O=C1NC[C@H](C(=O)Nc2cc(-c3cccc(OC(F)(F)F)c3)n(-c3ccccc3)n2)O1` [Example 264] showed a negative logarithm of the IC50 (pIC50) of 7.41. `O=C1NC[C@@H](C(=O)Nc2cc(-c3cccc(OC(F)(F)F)c3)n(-c3ccccc3)n2)N1` [Example 266]: the negative-log IC50 (pIC50) was 7.35.

As for `O=C1NC[C@H](C(=O)Nc2cc(-c3cccc(OC(F)(F)F)c3)n(-c3ccccc3)n2)N1` [Example 267], the negative logarithm of the IC50 (pIC50) was 7.09. Molecule `CCCCc1cccc(-c2cc(NC(=O)[C@@H]3CNC(=O)N3)nn2-c2ccccc2)c1` [Example 268] had a pIC50 of 8.07. `COC(C)(C)c1cccc(-c2cc(NC(=O)[C@H]3CNC(=O)N3)nn2-c2ccccc2)c1` [Example 269] showed a pIC50 of 7.04. For `COC(C)(C)c1cccc(-c2cc(NC(=O)[C@@H]3CNC(=O)N3)nn2-c2ccccc2)c1` [Example 270], the negative-log IC50 (pIC50) is 7.35. `COC(C)(C)c1cccc(-c2cc(NC(=O)C3CNC(=O)NC3)nn2-c2ccccc2)c1` [Example 271]: the negative logarithm of the IC50 (pIC50) is 6.54. Molecule `O=C1C[C@H](C(=O)Nc2cc(-c3cccc(OCCC(F)(F)F)c3)n(-c3ccccc3)n2)CN1` [Example 272] gave a pIC50 of 7.43. Same read-out and setting: for `O=C1C[C@H](C(=O)Nc2cc(-c3cccc(OCCCC(F)(F)F)c3)n(-c3ccccc3)n2)CN1` [Example 273] the value was 7.57.

The molecule `O=C1C[C@H](C(=O)Nc2cc(-c3cccc(COCC(F)(F)F)c3)n(-c3ccccc3)n2)CN1` [Example 279] showed a negative-log IC50 (pIC50) of 7.76. Regarding `O=C1C[C@@H](C(=O)Nc2cc(-c3cccc(COCC(F)(F)F)c3)n(-c3ccccc3)n2)CN1` [Example 280], the pIC50 is 8.01. With `O=C1C[C@H](C(=O)Nc2cc(-c3cccc(COCCC(F)(F)F)c3)n(-c3ccccc3)n2)CN1` [Example 281], the pIC50 is 7.67. Take `O=C1C[C@@H](C(=O)Nc2cc(-c3cccc(COCCC(F)(F)F)c3)n(-c3ccccc3)n2)CN1` [Example 282]: the pIC50 was 8.00. Still for that read-out and setting: then `CCOCc1cccc(-c2cc(NC(=O)[C@@H]3CNC(=O)C3)nn2-c2ccccc2)c1` [Example 283], with 6.96; and `CCCOc1cccc(-c2cc(NC(=O)[C@@H]3CNC(=O)C3)nn2-c2ccccc2)c1` [Example 284], with 7.12.

As for `CCOCc1cccc(-c2cc(NC(=O)[C@H]3CNC(=O)C3)nn2-c2ccccc2)c1` [Example 285], the pIC50 was 7.68.

Regarding `CC(C)COc1cccc(-c2cc(NC(=O)[C@@H]3CNC(=O)C3)nn2-c2ccccc2)c1` [Example 286], the pIC50 is 7.52. `CC(C)COc1cccc(-c2cc(NC(=O)[C@H]3CNC(=O)C3)nn2-c2ccccc2)c1` [Example 287]: the pIC50 was 7.92.

`CC(C)(C)COc1cccc(-c2cc(NC(=O)[C@@H]3CNC(=O)C3)nn2-c2ccccc2)c1` [Example 288] gave a negative-log IC50 (pIC50) of 7.94.

`CC(C)(C)COc1cccc(-c2cc(NC(=O)[C@H]3CNC(=O)C3)nn2-c2ccccc2)c1` [Example 289] showed a pIC50 of 8.35. The molecule `CC(C)(C)Oc1cccc(-c2cc(NC(=O)[C@@H]3CNC(=O)C3)nn2-c2ccccc2)c1` [Example 290] gave a negative-log IC50 (pIC50) of 8.26. The molecule `CCC(C)(C)Oc1cccc(-c2cc(NC(=O)[C@@H]3CNC(=O)C3)nn2-c2ccccc2)c1` [Example 291] showed a negative logarithm of the IC50 (pIC50) of 8.29. As for `CC(C)(C)CCOc1cccc(-c2cc(NC(=O)[C@@H]3CNC(=O)C3)nn2-c2ccccc2)c1` [Example 294], the negative logarithm of the IC50 (pIC50) was 7.61. As for `CCCc1cccc(-c2cc(NC(=O)[C@@H]3CNC(=O)N3CC)nn2-c2ccccc2)c1` [Example 295], the pIC50 is 7.54.

Still in this assay, the particulars now being: CHO-K1, at 0.03 uM.
Regarding `O=C1NCC(C(=O)Nc2cc(-c3cccc(OC(F)(F)F)c3)n(-c3ccccc3)n2)CN1` [Example 252], the inhibition at 0.03 µM came to 7%.

The same assay, now with this note: CHO-K1, at 0.1 uM.
In turn, `CCCc1cccc(-c2cc(NC(=O)C3CNC(=O)NC3)nn2-c2ccccc2)c1` [Example 251] showed an inhibition at 0.1 µM of 41%. On the same count and under the same terms, then `COCc1cccc(-c2cc(NC(=O)[C@@H]3CNC(=O)C3)nn2-c2ccccc2)c1` [Example 265], with 17%. The same measure, in the same setting: for `CCCc1cccc(-c2cc(NC(=O)C3CNC(=O)CO3)nn2-c2ccccc2)c1` (stereo not drawn) [Example 275] the value was 48%; for `O=C1COC(C(=O)Nc2cc(-c3cccc(OC(F)(F)F)c3)n(-c3ccccc3)n2)CN1` (stereo not drawn) [Example 276], 30%.

Regarding `CCN1C(=O)NC[C@H]1C(=O)Nc1cc(-c2cccc(OC(F)(F)F)c2)n(-c2ccccc2)n1` [Example 296], the inhibition at 0.1 µM was 48%.

The same assay, now with this note: at 0.1 uM.
Take `CCCc1cccc(-c2cc(NC(=O)C3CNC(=O)CO3)nn2-c2ccccc2)c1` (stereo not drawn) [Example 277]: the “human SGLT1 % Inhibition” value amounted to 48%. `O=C1COC(C(=O)Nc2cc(-c3cccc(OC(F)(F)F)c3)n(-c3ccccc3)n2)CN1` (stereo not drawn) [Example 278]: the “human SGLT1 % Inhibition” value was found to be 34%.

The same assay, now with this note: at 0.3 uM.
For `CCCc1cccc(-c2cc(NC(=O)C3CCCC(=O)NC3)nn2-c2ccccc2)c1` (stereo not drawn) [Example 255], the “human SGLT1 % Inhibition” value was found to be 7%. `CCCc1cccc(-c2cc(NC(=O)C3CCCC(=O)NC3)nn2-c2ccccc2)c1` (stereo not drawn) [Example 256]: the “human SGLT1 % Inhibition” value worked out at 3%.
